These are literature values, as cited in patent US10829440B2, “Antibacterial compounds and methods of making and using same” (Brown University, priority 2015, dated 2020).

Each structure is given as a SMILES string.

The subject of the data set is LT. Particulars: cited from earlier work.

For the compound `CC1=N[C@@H]2[C@@H](O)[C@H](O)[C@@H](CO)O[C@@H]2S1` [NAG-thiazoline], the “binding of LT” value was “weak binder”.
